The source of these data is patent US20200129459A1, “THE NEW USE OF 2-[(3Z)-6-FLUORO-2-METHYL-3-[(4-[…]) METHYLIDENE]INDEN-1 -YL] ACETIC ACID” (WYZSZA SZKOLA MEDYCZNA W BIALYMSTOKU, priority 2017, published 2020).

What all share (assay type): in vivo, Wistar rats
Experiment [1] concerns rats with alloxan-induced diabetes. The experiment can be described thus: Healing of excision wounds in rats with alloxan-induced diabetes, solutions applied on the wound. As to conditions: diabetic rats, 200 μl/daily on wound surface until full healing. As for the experimental part: Use of 2-[(3Z)-6-fluoro-2-methyl-3-[(4-methylsulfinylphenyl)methylidene]inden-1-yl] acetic acid (sulindac) for the treatment of difficult healing wounds in rats with alloxan-induced diabetes.
63 adult male Wistar rats were used in the experiment. All animals were kept under observation for two weeks before the onset of the experiment to exclude any intercurrent infection. Animals were housed in standard plastic cages by 5 animals per cage. Rats were kept in air-conditioned room at 22±2° C., humidity of 60-70% and a natural light (12/12 in the day/night cycle). All rats were fed ad libitum with standard laboratory rats chow.
Diabetes mellitus was induced with alloxan, a highly toxic compound that destroyed the β-cells of the pancreas Langerhans islets, by single intraperitoneally injection at dose 170 mg per kg of body weight in 0.1 M citrate-phosphate buffer, pH 4.0 after 24-hours fasting. After alloxan administration drinking water was replaced by 2 per cent sucrose solution in tap water on 10 days period.
Rats were identified as diabetic on the basis of blood glucose levels (higher than 16 mmol/l after 12 h starvation at 10 days post-alloxan treatment; total 31 rats were diabetic). […]
Every day wounds were photographed by digital camera. Wound macroscopic parameters were quantified using the ImageJ software (NIH, USA).

The target in the next experiment is T1, aldose reductase (Rattus norvegicus, UniProt P07943).
T1 construct: Tissue samples were homogenized in 135 mM Na, K-phosphate buffer (pH 7.0) containing 5 mM 2-mercaptoethanol; from tissue; host or cells: rat subcutaneous muscle subjacent to the wound (supernatant of the homogenate)
The experiment in a line: Rat subcutaneous muscle aldose reductase activity. As to conditions: subcutaneous muscle subjacent wound, diabetic rats. As for the experimental part: Tissue samples were homogenized in 135 mM Na, K-phosphate buffer (pH 7.0) containing 5 mM 2-mercaptoethanol. The homogenate was centrifuged at 12,000 g for 30 min and the supernatant was used in the following steps. Aldose reductase activity was determined according to the classic method with glyceraldehyde as substrate. The incubation mixture contained 135 mM Na, K-phosphate buffer (pH 7.0), 100 mM lithium sulfate, 0.03 mM NADPH, 0.04 mM D,L-glyceraldehyde (monomerized at 80 deg C. for 10 min and cooled to RT) as a substrate and the sample solution (50 μL). The reaction was initiated by adding NADPH at 37 C and stopped by adding 0.5 M HCl, followed by the addition of 6 M NaOH containing 10 mM imidazole. The solution was heated at 60 C for 10 min to convert NADP to a fluorescent product. The fluorescence was measured using a spectrofluorometer with ex/em 360/460 nm. The assay was performed in duplicates. Protein content was determined using BCA assay.

Experiment [2] has as its system rats with alloxan-induced diabetes. The experiment can be described thus: Histology of healed wound skin. As to conditions: diabetic rats, skin excised next day after full epithelization; hematoxylin-eosin and van Gison staining. As for the experimental part:
Tissue specimens next day after full epithelization were excised in depth to include underlying connective tissues above the external fascia of the dorsal muscles. The excised skin was fixed in paraformaldehyde (4% in PBS, 0.01 M, pH 7.4), dehydrated in graded alcohol solutions, embedded in paraffin blocks and sectioned at 5 μm-thick serial sections using microtome.
Preparations from the collected skin fragments were prepared in a standard manner and stained with the classic method using hematoxylin and eosin, and by the van Gison method using picric acid and acid fuchsine. The preparations were analyzed using a Leica DM 1000 light microscope equipped with a Leica DFC300 FX digital camera.

The subject of another experiment is sorbitol. The experiment in a line: Sorbitol in subcutaneous muscle subjacent to the wound. To be noted: diabetic rats, wet muscle weight. As for the experimental part:
Each muscle sample was cut into small pieces and ground in the presence of liquid nitrogen until it was powdered. The weight of the powered muscle tissue was determined, after which 1 mL of ice-cold 0.5 M perchloric acid was added and the samples were sonicated. The sonicated tissue was centrifuged for 5 min to remove precipitate. The resulting supernatant was neutralized by adding a solution 0.5 M potassium carbonate. The solution was then vortexed for 45 seconds, then centrifuged for 5 min at 5000 g and precipitate was discarded. The samples were stored in deep freezer at −86° C. until sorbitol determination.
The neutralized muscle extracts were vortexed and 10 μL aliquots along with sorbitol standards were added to a 96 well plate. Sorbitol dehydrogenase reaction was started by adding to each well 10 μL of a reaction mix containing 20 μg/μL sorbitol dehydrogenase, 2 mM NAD in 50 mM glycine-NaOH buffer pH 9.7. Following incubation with sorbitol dehydrogenase for 30 min at room temperature, 100 μL of a solution containing 65 μg/mL diaphorase, 10 uM FMN, 20 μM resazurin in 50 mM glycine-NaOH, pH 9.7 was added and the fluorescence (ex/em at 544/590 nm) was determined on a fluorescent plate reader for a period of an hour. Sorbitol content was expressed in nmol/mg of wet muscle weight.

Setting [3] is: mediana (25th; 75th percentile).

The structures appear in SMILES notation.

Consider `CC1=C(CC(=O)O)c2cc(F)ccc2/C1=C\c1ccc([S+](C)[O-])cc1` (stereo not shown) [Sul, 2-[(3Z)-6-fluoro-2-methyl-3-[(4-methylsulfinylphenyl)methylidene]inden-1-yl] acetic acid], for which the Full healing is recorded as 23.7 ± 0.65 days in experiment [1] (M±m (SEM)) and 24.0(22.0; 25.0) ^Δ days in experiment [1] (setting [3]). The AR at aldose reductase (M±m (SEM)) is recorded as 0.64 ± 0.04 nmole NADPH/min/mg protein; on aldose reductase (setting [3]), 0.677(0.63; 0.69) ^ΔΔΔ nmole NADPH/min/mg protein. In experiment [2], the “Histology of the area of damage” value is recorded as “the skin was rebuilt in the form of a scar tissue made of modified connective tissue”. Moreover, the Sorbitol levels in the experiment with sorbitol (M±m (SEM)) is recorded as 0.057 ± 0.005 nmol/mg; in the experiment with sorbitol (setting [3]) it was 0.053(0.048; 0.075) ^ΔΔΔ nmol/mg.
